Measurements reported in US20210153516A1, “COMPOSITION AND METHOD OF TREATING PLANTS AND PLANT PARTS WITH VOLATILE SPOILAGE ORGANISM CONTROLLING ACTIVES” (AGROFRESH INC., priority 2019, published 2021).

Columns and labels:
[1] = system: B. cinerea (Botrytis cinerea or Gray mold); assay: B. cinerea infection assessment for blueberries after thermal fogging (Example 3); format: in vivo; conditions: untreated blueberries placed adjacent to treated blueberries one day after treatment, 10 mg active ingredient per kg
Description: (§1) The experiment was conducted by 1) setting up a 4.3 m^3 rectangular plastic tent, 2) placing blueberries in open clamshells in the tent, 3) preparing a foggable formulation by dissolving volatile compound into a solvent mixture containing 50% w/w propylene glycol, 47.8% w/w isopropyl alcohol, 2% w/w sorbitan mono-oleate, and 0.2% of citric acid to achieve about 10% w/w volatile compound, 4) inoculating the blueberries before treatment, 5) applying the formulation through a thermal fogger with set temperature at 200° C. and flow rate of about 70 ml/min, and target use rate of 10 mg active ingredient per kg of blueberries, and 6) storing the blueberries under refrigerated condition of about 4° C. after treatment, and at room temperature to incubate for observation of disease infections.
B. cinerea (Botrytis cinerea or Gray mold) infection was assessed at 4 and 13 days incubation time for both untreated blueberries in isolation and untreated blueberries placed adjacent to the treated blueberries one day after the treatment.

[2] = system: B. cinerea; assay: B. cinerea infection assessment for blueberries after thermal fogging (Example 4); format: in vivo, Botrytis cinerea
Description: as §1
B. cinerea infection was assessed at 13, 16, and 24 days incubation time under room temperature shelf life conditions for both untreated blueberry in isolation, untreated blueberry placed adjacent to the treated blueberry six days after the treatment, and the treated blueberries.

[3] = system: B. cinerea; assay: B. cinerea infection assessment for strawberries after dipping treatment; format: in vivo, Botrytis cinerea
Description: The experiment was conducted by 1) preparing a dipping treatment solution by dissolving volatile compound into 20% v/v isopropanol water solution to achieve 10 ppm concentration, 2) pre-inoculate all the strawberries before treatment, 3) dipping strawberries in the prepared solution for 30 seconds, 4) storing the strawberries under refrigerated conditions and at room temperature to incubate for disease observations. B. cinerea infection was assessed at 3 and 5 days incubation time for both untreated strawberries in isolation and untreated strawberries placed adjacent to the treated strawberries.

[4] = system: Penicillium digitatum (Green mold) and Penicillium italicum (Blue mold); assay: Green mold and Blue mold infection assessment for mandarins after dipping treatment; format: in vivo; conditions: equally mixed mandarins of untreated and treated (dip about 60 seconds); 10 days incubation at room temperature
Description: The experiment was conducted by 1) preparing a dipping treatment solution by diluting 360 ml concentrated formulation containing 10% w/w volatile compound, 45% w/w propylene glycol, 43.02% w/w isopropanol, 1.8% w/w sorbitan mono-oleate, 0.18% w/w citric acid into 60 L water, 2) dipping a box of mandarins into the treatment solution bath for about 60 seconds, 3) after air drying of the mandarins, preparing a box of mandarins containing 50% untreated mandarins and 50% treated mandarins, 4) storing the mandarins under 3-5° C. refrigerated conditions for 7 days, and then storing at room temperature with high humidity to incubate for disease observations. Penicillium digitatum (Green mold) and Penicillium italicum (Blue mold) infection incidence of the mandarins was assessed at 10 days incubation time under room temperature shelf life conditions for both untreated mandarins in isolation and equally mixed untreated and treated mandarins to simulate uneven drench or dip treatment applications.

[5] = system: Penicillium digitatum (Green mold) and Penicillium italicum (Blue mold); assay: Green mold and Blue mold infection assessment for mandarins after spray treatment; format: in vivo; conditions: equally mixed mandarins of untreated and treated (spray 60 ml treatment solution per box); 10 days incubation at room temperature
Description: The experiment was conducted by 1) preparing a spray treatment solution by diluting […] concentrated formulation containing 10% w/w volatile compound, 45% w/w propylene glycol, 43.02% w/w isopropanol, 1.8% w/w sorbitan mono-oleate, 0.18% w/w citric acid into 1 L water, 2) spraying a box of mandarins with the use rate of 60 ml treatment solution per box, 3) after air drying of the mandarins, preparing a box of mandarins containing 50% untreated mandarins and 50% treated mandarins, 4) storing the mandarins under 3-5° C. refrigerated conditions for 7 days, and then storing at room temperature with high humidity to incubate for disease observations. Penicillium Digitatum (Green mold) and Penicillium italicum (Blue mold) infection incidence of the mandarins was assessed at 10 days incubation time under room temperature shelf life conditions for both untreated mandarins in isolation and equally mixed untreated and treated mandarins to simulate uneven spray treatment applications.

[6] = treated blueberries, thermal fogging 10 mg active ingredient per kg, 13 days incubation
[7] = treated blueberries, thermal fogging 10 mg active ingredient per kg, 16 days incubation
[8] = treated blueberries, thermal fogging 10 mg active ingredient per kg, 24 days incubation
[9] = untreated blueberries placed adjacent to treated blueberries 6 days after treatment, 13 days incubation
[10] = untreated blueberries placed adjacent to treated blueberries 6 days after treatment, 16 days incubation
[11] = untreated blueberries placed adjacent to treated blueberries 6 days after treatment, 24 days incubation

OB1OCc2cc(F)ccc21 [5-fluoro-1-hydroxy-3H-2,1-benzoxaborole]
B. cinerea incidence ([1]; 4 days incubation): 2.6%
B. cinerea severity ([1]; 4 days incubation): 0.2%
B. cinerea incidence ([1]; 13 days incubation): 19.2%
B. cinerea severity ([1]; 13 days incubation): 10.6%
B. cinerea incidence [2, 6]: 2.8%
B. cinerea severity [2, 6]: 1.1%
B. cinerea incidence [2, 7]: 2.8%
B. cinerea severity [2, 7]: 1.1%
B. cinerea incidence [2, 8]: 5.6%
B. cinerea severity [2, 8]: 3.3%
B. cinerea incidence [2, 9]: 16.7%
B. cinerea severity [2, 9]: 4.7%
B. cinerea incidence [2, 10]: 23.0%
B. cinerea severity [2, 10]: 6.2%
B. cinerea incidence [2, 11]: 33.3%
B. cinerea severity [2, 11]: 15.0%
B. cinerea severity ([3]; treated strawberries, dipped 30 seconds in 10 ppm solution, 3 days incubation): 0.0%
B. cinerea severity ([3]; treated strawberries, dipped 30 seconds in 10 ppm solution, 5 days incubation): 0.0%
B. cinerea severity ([3]; untreated strawberries placed adjacent to treated strawberries, 3 days incubation): 5.4%
B. cinerea severity ([3]; untreated strawberries placed adjacent to treated strawberries, 5 days incubation): 43.8%
Green and Blue mold incidence [4]: 4.1%
Green and Gray molds incidence [5]: 0.64%
